The source made the active and inactive calls. No cut-off for these calls is given here.
Columns and labels:
[1] = biological target: Xanthine dehydrogenase/oxidase (Bos taurus, UniProt P80457); experiment: Inhibition of bovine milk xanthine oxidase using xanthine as substrate preincubated for 30 mins followed by substrate addition by absorbance based analysis
[2] = biological target: T1, Xanthine dehydrogenase/oxidase (Homo sapiens, UniProt P47989); experiment: Reversible inhibition of xanthine oxidase (unknown origin) using xanthine as substrate by absorbance based analysis
T1 sequence (P47989 whole entry): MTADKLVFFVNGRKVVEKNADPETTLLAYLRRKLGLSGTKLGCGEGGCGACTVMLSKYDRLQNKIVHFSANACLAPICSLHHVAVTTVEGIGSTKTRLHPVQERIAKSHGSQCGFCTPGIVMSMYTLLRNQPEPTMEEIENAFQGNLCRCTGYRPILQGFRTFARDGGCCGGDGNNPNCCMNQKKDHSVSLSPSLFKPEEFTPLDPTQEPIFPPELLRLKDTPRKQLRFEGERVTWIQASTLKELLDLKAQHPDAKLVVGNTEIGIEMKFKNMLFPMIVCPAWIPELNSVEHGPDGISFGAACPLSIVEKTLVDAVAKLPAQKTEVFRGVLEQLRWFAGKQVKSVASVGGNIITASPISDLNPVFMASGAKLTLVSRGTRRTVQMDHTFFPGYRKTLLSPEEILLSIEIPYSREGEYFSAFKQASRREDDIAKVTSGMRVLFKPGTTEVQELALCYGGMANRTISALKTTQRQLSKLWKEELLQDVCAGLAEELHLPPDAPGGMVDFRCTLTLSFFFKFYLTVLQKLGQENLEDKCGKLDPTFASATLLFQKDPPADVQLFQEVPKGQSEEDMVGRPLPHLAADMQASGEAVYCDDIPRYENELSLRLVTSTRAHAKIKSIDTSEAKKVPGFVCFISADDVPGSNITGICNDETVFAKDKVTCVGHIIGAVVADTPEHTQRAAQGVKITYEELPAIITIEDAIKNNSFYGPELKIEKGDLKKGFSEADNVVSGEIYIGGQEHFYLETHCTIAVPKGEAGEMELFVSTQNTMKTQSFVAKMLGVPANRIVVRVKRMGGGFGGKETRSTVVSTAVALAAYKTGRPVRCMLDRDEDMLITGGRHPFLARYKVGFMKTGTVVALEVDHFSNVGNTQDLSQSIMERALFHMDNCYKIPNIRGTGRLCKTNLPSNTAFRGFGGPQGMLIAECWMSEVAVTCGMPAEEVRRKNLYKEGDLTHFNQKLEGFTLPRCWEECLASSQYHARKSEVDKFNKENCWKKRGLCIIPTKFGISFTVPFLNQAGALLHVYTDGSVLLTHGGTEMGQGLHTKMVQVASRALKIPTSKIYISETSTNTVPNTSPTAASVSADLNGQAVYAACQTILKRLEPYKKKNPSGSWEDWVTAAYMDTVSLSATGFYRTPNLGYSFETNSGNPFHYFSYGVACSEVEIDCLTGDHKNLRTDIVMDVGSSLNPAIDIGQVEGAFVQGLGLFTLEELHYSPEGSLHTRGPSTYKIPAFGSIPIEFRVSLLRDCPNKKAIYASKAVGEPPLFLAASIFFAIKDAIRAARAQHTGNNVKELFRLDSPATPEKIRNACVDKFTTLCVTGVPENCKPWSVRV

[3] = biological target: T1, Xanthine dehydrogenase/oxidase; experiment: Mixed-type inhibition of xanthine oxidase (unknown origin) using xanthine as substrate by absorbance based analysis
[4] = Effect on serum AST/ALT ratio in PO-induced hyperuricemia Sprague-Dawley rat model at 10 to 40 mg/kg, po measure upto 8 hrs; type: toxicity, organism-based; details: in vivo, dose 10-40 mg/kg
[5] = Effect on BUN level in PO-induced hyperuricemia Sprague-Dawley rat model at 10 to 40 mg/kg, po measure upto 8 hrs; type: toxicity, organism-based; details: in vivo, dose 10-40 mg/kg
Rattus norvegicus [6] = experiment: Anti-hyperuricemia effect in PO-induced hyperuricemia Sprague-Dawley rat model assessed as decrease in serum uric acid level at 10 mg/kg, po measured for 1 to 6 hrs; type: functional, organism-based; details: time 1-6 hrs
[7] = Effect on serum creatinine level in PO-induced hyperuricemia Sprague-Dawley rat model at 10 to 40 mg/kg, po measure upto 8 hrs; type: toxicity, organism-based; details: in vivo, dose 10-40 mg/kg
Rattus norvegicus [8] = experiment: Anti-hyperuricemia effect in PO-induced hyperuricemia Sprague-Dawley rat model assessed as decrease in serum uric acid level at 10 to 40 mg/kg, po measured after 2 hrs; type: functional, organism-based; details: dose 10-40 mg/kg
AML12 = experiment: Cytotoxicity in mouse AML12 cells at 1 to 20 uM incubated for 24 hrs by MTT assay; type: toxicity, cell-based; details: aml12, 24 h, dose 1-20 µM
[9] = biological target: T1, Xanthine dehydrogenase/oxidase; experiment: Inhibition of xanthine oxidase (unknown origin)
[10] = Effect on serum AST/ALT ratio in PO-induced hyperuricemia Sprague-Dawley rat model at 10 mg/kg, po measure upto 8 hrs; type: toxicity, organism-based; details: in vivo
[11] = Effect on serum creatinine level in PO-induced hyperuricemia Sprague-Dawley rat model at 10 mg/kg, po measure upto 8 hrs; type: toxicity, organism-based; details: in vivo
Rattus norvegicus [12] = experiment: Anti-hyperuricemia effect in PO-induced hyperuricemia Sprague-Dawley rat model assessed as decrease in serum uric acid level at 10 mg/kg, po measured after 2 hrs; type: functional, organism-based
[13] = biological target: T1, Xanthine dehydrogenase/oxidase; experiment: Inhibition of xanthine oxidase (unknown origin) using xanthine as substrate preincubated for 20 mins followed by substrate addition measured for 5 mins by absorbance based analysis
[14] = Cytotoxicity in mouse AML12 cells assessed as cell viability at 1 to 10 uM incubated for 24 hrs by MTT assay relative to control; type: toxicity, cell-based; details: dose 1-10 µM, read-out: Activity
[15] = Cytotoxicity in mouse AML12 cells assessed as cell viability at 20 uM incubated for 24 hrs by MTT assay relative to control; type: toxicity, cell-based; details: read-out: Activity

Sequence of Xanthine dehydrogenase/oxidase (Bos taurus, UniProt P80457) (P80457 whole entry): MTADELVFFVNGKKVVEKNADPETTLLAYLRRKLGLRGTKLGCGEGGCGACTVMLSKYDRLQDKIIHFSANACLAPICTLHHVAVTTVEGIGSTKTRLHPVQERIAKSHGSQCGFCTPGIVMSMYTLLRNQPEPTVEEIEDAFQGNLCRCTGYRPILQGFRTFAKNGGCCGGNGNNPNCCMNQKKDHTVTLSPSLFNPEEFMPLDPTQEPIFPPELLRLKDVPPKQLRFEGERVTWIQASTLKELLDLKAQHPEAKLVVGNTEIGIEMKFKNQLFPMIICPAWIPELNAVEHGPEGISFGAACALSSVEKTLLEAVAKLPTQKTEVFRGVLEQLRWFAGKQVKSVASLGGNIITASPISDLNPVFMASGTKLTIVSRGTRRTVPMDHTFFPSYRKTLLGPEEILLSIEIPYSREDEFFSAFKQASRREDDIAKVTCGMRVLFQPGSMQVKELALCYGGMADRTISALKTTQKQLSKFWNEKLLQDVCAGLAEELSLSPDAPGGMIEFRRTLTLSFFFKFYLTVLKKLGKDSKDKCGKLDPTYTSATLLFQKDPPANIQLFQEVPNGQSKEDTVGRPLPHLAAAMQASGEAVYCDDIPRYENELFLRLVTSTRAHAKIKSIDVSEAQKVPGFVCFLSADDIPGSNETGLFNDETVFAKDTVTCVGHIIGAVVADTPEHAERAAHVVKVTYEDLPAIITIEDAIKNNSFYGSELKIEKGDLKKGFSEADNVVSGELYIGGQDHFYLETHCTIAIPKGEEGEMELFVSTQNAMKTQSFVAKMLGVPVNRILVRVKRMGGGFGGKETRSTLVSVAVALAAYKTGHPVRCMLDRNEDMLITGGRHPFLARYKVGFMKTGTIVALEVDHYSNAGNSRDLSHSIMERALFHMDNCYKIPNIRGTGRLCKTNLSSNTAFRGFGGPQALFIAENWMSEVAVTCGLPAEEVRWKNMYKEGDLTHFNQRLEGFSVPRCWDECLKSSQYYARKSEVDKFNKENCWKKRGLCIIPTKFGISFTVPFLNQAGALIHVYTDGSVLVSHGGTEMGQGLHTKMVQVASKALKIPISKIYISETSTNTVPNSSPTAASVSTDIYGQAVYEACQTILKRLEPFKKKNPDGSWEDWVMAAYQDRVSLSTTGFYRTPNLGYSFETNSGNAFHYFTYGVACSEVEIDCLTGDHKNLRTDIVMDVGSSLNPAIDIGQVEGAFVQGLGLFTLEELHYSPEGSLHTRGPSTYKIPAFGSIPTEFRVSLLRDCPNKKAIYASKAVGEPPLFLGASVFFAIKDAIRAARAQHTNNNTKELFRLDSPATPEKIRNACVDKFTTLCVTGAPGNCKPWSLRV

Structure (SMILES) | IC50 [1] | further results
CN(C)c1ccc(C(=O)/C=C/c2cc(C(=O)O)ccc2O)cc1 | 117 nM | –
O=C(O)c1ccc(O)c(/C=C/C(=O)c2ccc3c(c2)OCO3)c1 | 178 nM | –
CNc1ccc(C(=O)/C=C/c2cc(C(=O)O)ccc2O)cc1 | 102 nM | inhibition (INH) [2]: Active; inhibition (INH) [3]: Active; Activity [4]: Non-Toxic; Activity [5]: Non-Toxic; Activity (Rattus norvegicus [6]): Active; Activity [7]: Non-Toxic; Activity (Rattus norvegicus [8]): Active; Activity (AML12): Non-Toxic
CC(C)(C)c1ccc(C(=O)/C=C/c2cc(C(=O)O)ccc2O)cc1 | 555 nM | –
CC(=O)c1ccc(C(=O)/C=C/c2cc(C(=O)O)ccc2O)cc1 | 248 nM | –
O=C(O)c1ccc(/C=C/C(=O)c2ccc(O)cc2)cc1 | – | IC50 [9]: 300 nM
CSc1ccc(C(=O)/C=C/c2cc(C(=O)O)ccc2O)cc1 | 193 nM | –
O=C(O)c1ccc(O)c(/C=C/C(=O)c2cc[nH]c2)c1 | 301 nM | –
Cc1ccc(C(=O)/C=C/c2cc(C(=O)O)ccc2O)cc1 | 176 nM | –
O=C(O)c1ccc(O)c(/C=C/C(=O)c2ccsc2)c1 | 215 nM | –
O=C(O)c1ccc(O)c(/C=C/C(=O)c2ccc3c(c2)CCN3)c1 | 64 nM | inhibition (INH) [2]: Active; inhibition (INH) [3]: Active; Activity (AML12): Non-Toxic
O=C(O)c1ccc(O)c(/C=C/C(=O)c2cccnc2)c1 | 297 nM | –
CS(=O)(=O)c1ccc(C(=O)/C=C/c2cc(C(=O)O)ccc2O)cc1 | 109 nM | –
CCCCOc1ccc(C(=O)/C=C/c2cc(C(=O)O)ccc2O)cc1 | 294 nM | –
O=C(O)c1ccc(O)c(/C=C/C(=O)c2ccc3c(c2)CCO3)c1 | 155 nM | –
O=C(O)c1ccc(O)c(/C=C/C(=O)c2nccs2)c1 | 226 nM | –
O=C(O)c1ccc(O)c(/C=C/C(=O)c2ccccc2)c1 | 206 nM | –
CCCOc1ccc(C(=O)/C=C/c2cc(C(=O)O)ccc2O)cc1 | 542 nM | –
O=C(O)c1ccc(O)c(/C=C/C(=O)c2ccc3ncccc3c2)c1 | 196 nM | –
COc1ccc(C(=O)/C=C/c2cc(C(=O)O)ccc2O)cc1 | 266 nM | –

Structure (SMILES) | IC50 [1] | further results
O=C(O)c1ccc(O)c(/C=C/C(=O)c2cccc3ccccc23)c1 | 222 nM | –
C#CCOc1ccc(C(=O)/C=C/c2cc(C(=O)O)ccc2O)cc1 | 274 nM | –
C[S+]([O-])c1ccc(C(=O)/C=C/c2cc(C(=O)O)ccc2O)cc1 (configuration not stated) | 311 nM | –
CCOc1ccc(C(=O)/C=C/c2cc(C(=O)O)ccc2O)cc1 | 484 nM | –
COc1ccc(C(=O)/C=C/c2ccc(C(=O)O)cc2)cc1 | – | IC50 [9]: 100 nM
Oc1ncnc2[nH]ncc12 [ALLOPURINOL] | – | Activity [10]: Non-Toxic; Activity [11]: Toxic; Activity (Rattus norvegicus [12]): Active
C#Cc1ccc(C(=O)/C=C/c2cc(C(=O)O)ccc2O)cc1 | 127 nM | –
O=C(O)c1ccc(O)c(/C=C/C(=O)c2ccc3ccccc3c2)c1 | 213 nM | –
O=C(/C=C/c1ccc(O)cc1)c1ccc(O)c(O)c1 | – | IC50 [13]: 5600 nM
COc1ccc(C(=O)/C=C/c2ccc(O)cc2)cc1 | – | IC50 [13]: 4500 nM
C=CCOc1ccc(C(=O)/C=C/c2cc(C(=O)O)ccc2O)cc1 | 404 nM | –
CCCc1ccc(C(=O)/C=C/c2cc(C(=O)O)ccc2O)cc1 | 211 nM | –
O=C(O)c1ccc(O)c(/C=C/C(=O)c2ccccn2)c1 | 307 nM | –
O=C(O)c1ccc(O)c(/C=C/C(=O)c2ccc3c(c2)CCC3)c1 | 559 nM | –
CC(C)COc1ccc(C(=O)/C=C/c2cc(C(=O)O)ccc2O)cc1 | 306 nM | –
O=C(O)c1ccc(O)c(/C=C/C(=O)c2ccc3[nH]ccc3c2)c1 | 139 nM | –
O=C(O)c1ccc(O)c(/C=C/C(=O)c2ccc3c(c2)OCCO3)c1 | 185 nM | –
CC1(C)CCSc2ccc(C(=O)/C=C/c3cc(C(=O)O)ccc3O)cc21 | 368 nM | –
CCc1ccc(C(=O)/C=C/c2cc(C(=O)O)ccc2O)cc1 | 84 nM | inhibition (INH) [2]: Active; inhibition (INH) [3]: Active; viability at 24 h, up to 10 µM [14]: > 90%; viability at 24 h, 20 µM [15]: 82.1%
O=C(O)c1ccc(O)c(/C=C/C(=O)c2ccncc2)c1 | 309 nM | –
